Results reported in ChEMBL document CHEMBL1125340, “Inhibition of hog liver folylpolyglutamate synthetase by 5-substituted 5,8-dideaza analogues of folic acid bearing a terminal L-ornithine residue” (J Med Chem, 1992).

Test system: Folylpolyglutamate synthase (Sus scrofa)
Test: The ratio of Kinetic constant Vmax / Binding constant Km at homogenous Hog Liver Folyl polyglutamate Synthetase (FPGS).

Ratio | Compound
102 | NCCCC(NC(=O)c1ccc(CNc2ccc3nc(N)nc(O)c3c2Cl)cc1)C(=O)O (centres undefined)
121 | NCCCC(NC(=O)c1ccc(NCc2ccc3nc(N)nc(O)c3c2C(F)(F)F)cc1)C(=O)O (centres undefined)
118 | NCCCC(NC(=O)c1ccc(CNc2ccc3nc(N)nc(O)c3c2C(F)(F)F)cc1)C(=O)O (centres undefined)
64 | NCCCC(NC(=O)c1ccc(CNc2ccc3nc(N)nc(O)c3c2F)cc1)C(=O)O (centres undefined)
